The source of these data is patent US20130122051A1, “Methods of preparing progesterone pharmaceutical compositions” (PHARMACEUTICS INTERNATIONAL, INC., priority 2011, published 2013).

The data set in a line: particle size measured using a MALVERN MASTERSIZER particle size analyzer. Conditions: starting progesterone particles before milling. The format is physicochemical. The protocol: Samples of each of the first, second, and third pass wet-milled progesterone compositions prepared under the various milling conditions are collected and the particle size (μm) is measured using a MALVERN MASTERSIZER particle size analyzer (Malvern Instruments, Westborough Mass.). Saturated, filtered, progesterone in sunflower oil is used as the diluent. “Initial” refers to unmilled progesterone suspension. “% Beads” refers to the volume of milling chamber filled with milling media (beads). “Input” refers to the pump setting. “Output” refers to the product (gm/min) received from the mill.

Regarding `CC(=O)[C@H]1CC[C@H]2[C@@H]3CCC4=CC(=O)CC[C@]4(C)[C@H]3CC[C@]12C` [unmicronized progesterone, pregn-4-ene-3,20-dione], the D90 was found to be 220 μm.
